Values after ≈ are worked out from the molar mass of the structure shown.
What was measured:
Format in all cases: physicochemical
[1] = Solubility assessment of saturated solutions in SGF, FeSSIF and water, measured by HPLC
Method: Form CS1 and Form CS1 of ozanimod hydrochloride were suspended into SGF (Simulated gastric fluids) and FeSSIF (Fed state simulated intestinal fluids, pH=5.0) to obtain saturated solutions. After being equilibrated for 1 h, 4 h and 24 h, concentrations of the saturated solutions were measured by HPLC.
Form CS3 and Form CS5 were suspended into SGF (Simulated gastric fluids) and water, and Form CS2 was suspended into FeSSIF (Fed state simulated intestinal fluids) to obtain saturated solutions. After being equilibrated for 1 h, 4 h and 24 h, concentrations of the saturated solutions were measured by HPLC.

[2] = Hygroscopicity assessment by dynamic vapor sorption (DVS); settings: for Hygroscopicity class according to the definition of hygroscopicity: Chinese Pharmacopoeia 2015, 25° C., 80% RH; for Weight gain under 80% RH: DVS, 25° C.
Method: Dynamic Vapor Sorption (DVS) is measured via an SMS (Surface Measurement Systems Ltd.) intrinsic DVS. Typical Parameters for DVS test are as follows:
Gas and flow rate: N2, 200 mL/min
RH range: 0% RH to 95% RH […]
Dynamic vapor sorption (DVS) was applied to test hygroscopicity of Form CS1 of ozanimod hydrochloride with about 10 mg of samples.
Description and definition of hygroscopicity (Chinese Pharmacopoeia 2015 edition appendix Drug hygroscopic test guidelines, test at 25° C.+/−1° C., 80% RH). • deliquescent: Sufficient water is absorbed to form a liquid; • very hygroscopic: Increase in mass is equal to or greater than 15 percent; • hygroscopic: Increase in mass is less than 15 percent and equal to or greater than 2 percent; • slightly hygroscopic: Increase in mass is less than 2 percent and equal to or greater than 0.2 percent. • non hygroscopic or almost non hygroscopic: Increase in mass is less than 0.2 percent.

[3] = Particle size distribution test (laser particle size analyzer, wet process); settings: for MV, average particle size calculated by volume: dispersion medium Isopar G; for D10 / D50 (median diameter) / D90: volume distribution, Isopar G
Method: The particle size distribution test in the present disclosure is acquired by the S3500 laser particle size analyzer of Microtrac. Microtrac S3500 is equipped with the SDC (Sample Delivery Controller). The test is carried out by wet process, and the dispersion medium is Isopar G The parameters are as follow:
Certain amount of samples of Form CS1, Form CS2, Form CS3, Form CS5, Form CS6 of ozanimod and Form CS1 of ozanimod hydrochloride were taken for particle size distribution test.

[4] = Stability assessment in constant temperature and humidity chambers (HPLC purity, XRPD crystalline form); settings: for 1 week purity % / 2 week purity % / 4 week purity %: HPLC; for 2 week purity %: 2 weeks; for Change of the crystalline form: XRPD; for Stability, overall conclusion of the storage test: after storage under all conditions tested for the form
Method: Three solid samples of Form CS1 were placed in constant temperature and humidity chambers at 25° C./60% RH, 40° C./75% RH and 60° C./75% RH for 4 weeks. XRPD was used to test the crystalline form at the end of week 4. HPLC was used to measure the chemical purity at the end of week 1, 2, and 4. The XRPD comparison result is shown in FIG. 31 (from top to bottom: XRPD pattern of Form CS1 before and after being stored under 25° C./60% RH, 40° C./75% RH and 60° C./75% RH for 4 weeks), and the results are shown in Table 20.
Four solid samples of Form CS2 were placed in constant temperature and humidity chambers at 25° C./60% RH, 40° C./75% RH and 60° C./75% RH for 4 weeks and 80° C. for 1 week. XRPD was used to test the crystalline form at the end of week 4. HPLC was used to measure the chemical purity at the end of week 1, 2, and 4. The XRPD comparison result is shown in FIG. 32 (from top to bottom: XRPD pattern of Form CS2 before and after being stored under 25° C./60% RH, 40° C./75% RH and 60° C./75% RH for 4 weeks and 80° C. for 1 week), and the results are shown in Table 21.
Three solid samples of Form CS3 were placed in constant temperature and humidity chambers at 25° C./60% RH, 40° C./75% RH and 60° C./75% RH for 4 weeks. XRPD was used to test the crystalline form at the end of week 4. HPLC was used to measure the chemical purity at the end of week 1, 2, and 4. The XRPD comparison pattern is shown in FIG. 33 (from top to bottom: XRPD pattern of Form CS3 before and after being stored under 25° C./60% RH, 40° C./75% RH and 60° C./75% RH for 4 weeks), and the results are shown in Table 22.
Three solid samples of Form CS5 were placed in constant temperature and humidity chambers at 25° C./60% RH, 40° C./75% RH and 60° C./75% RH for 2 weeks. XRPD was used to test the crystalline form at the […]. The XRPD comparison pattern is shown in FIG. 34 (from top to bottom: XRPD pattern of Form CS5 before and after being stored under 25° C./60% RH, 40° C./75% RH and 60° C./75% RH for 2 weeks), and the results are shown in Table 23.
Two samples of Form CS6 were placed in constant temperature and humidity chambers at 25° C./60% RH and 40° C./75% RH for 4 weeks. XRPD was used to test the crystalline form at the end of week 4. HPLC was used to measure the chemical purity at the end of week 1, 2, and 4.The XRPD comparison result is shown in FIG. 35 (from top to bottom: XRPD pattern of Form CS6 before and after being stored under 25° C./60% RH and 40° C./75% RH for 4 weeks), and the results are shown in Table 24.
Four samples of Form CS1 of ozanimod hydrochloride were placed in constant temperature and humidity chambers at 25° C./60% RH, 40° C./75% RH and 60° C./75% RH for 4 weeks and 80° C. for 1 week. XRPD was used to test the crystalline form at the end of week 4. HPLC was used to measure the chemical purity at the end of week 1, 2, and 4. The XRPD comparison pattern is shown in FIG. 36 (from top to bottom: XRPD pattern of ozanimod hydrochloride Form CS1 before and after being stored under 25° C./60% RH, 40° C./75% RH and 60° C./75% RH for 4 weeks and 80° C. for 1 week), and the results are shown in Table 25.

[5] = Mechanical stability, manual grinding for 5 minutes in mortar, XRPD; settings: ground manually for 5 minutes, XRPD before and after
Method: Solid samples of Form CS3, Form CS5, Form CS6 of ozanimod and Form CS1 of ozanimod hydrochloride were ground manually for 5 minutes in mortar.

SMILES	Solubility ([1]; FeSSIF (pH=5.0), 1 h) [µg/mL]	Hygroscopicity class according to the definition of hygroscopicity [2]	Weight gain under 80% RH [2] [%]	MV, average particle size calculated by volume [3] [μm]	D10 [3] [μm]	D50 (median diameter) [3] [μm]	D90 [3] [μm]	1 week purity % ([4]; 25° C./60% RH, 1 week) [%]	2 week purity % ([4]; 25° C./60% RH) [%]	4 week purity % ([4]; 25° C./60% RH, 4 weeks) [%]	Change of the crystalline form ([4]; 25° C./60% RH, 4 weeks)	1 week purity % ([4]; 40° C./75% RH, 1 week) [%]	2 week purity % ([4]; 40° C./75% RH) [%]	4 week purity % ([4]; 40° C./75% RH, 4 weeks) [%]	Change of the crystalline form ([4]; 40° C./75% RH, 4 weeks)	1 week purity % ([4]; 60° C./75% RH, 1 week) [%]	2 week purity % ([4]; 60° C./75% RH) [%]	4 week purity % ([4]; 60° C./75% RH, 4 weeks) [%]	Change of the crystalline form ([4]; 60° C./75% RH, 4 weeks)	Stability, overall conclusion of the storage test [4]	further results
CC(C)Oc1ccc(-c2nc(-c3cccc4c3CC[C@@H]4NCCO)no2)cc1C#N [Form CS1, ozanimod]	4200 (≈ 10.4 mM)	slightly hygroscopic (Increase in mass is less than 2 percent and equal to or greater than 0.2 percent)	0.36	22.40	3.15	11.20	48.90	99.12	99.18	98.97	No change	99.16	99.17	98.92	No change	99.26	99.13	98.71	No change	good stability	Solubility ([1]; FeSSIF (pH=5.0), 4 h): 7300 µg/mL (≈ 18 mM); Solubility ([1]; SGF, 1 h): 6400 µg/mL (≈ 15.8 mM); Solubility ([1]; SGF, 4 h): 6300 µg/mL (≈ 15.6 mM); Solubility ([1]; SGF, 24 h): 5900 µg/mL (≈ 14.6 mM); solubility at 24 h ([1]; fed state simulated intestinal fluid (FeSSIF), pH 5, fessif, thermodynamic from solid, FeSSIF (pH=5.0), 24 h): 7700 µg/mL (≈ 19 mM)
CC(C)Oc1ccc(-c2nc(-c3cccc4c3CC[C@@H]4NCCO)no2)cc1C#N [Form CS2, ozanimod]	2000 (≈ 4.94 mM)	slightly hygroscopic (Increase in mass is less than 2 percent and equal to or greater than 0.2 percent)	0.25	23.24	5.78	14.20	42.35	99.85	99.63	99.62	No change	99.84	99.78	99.55	No change	99.91	99.60	99.63	No change	good stability	1 week purity % ([4]; 80° C., 1 week): 99.71%; Change of the crystalline form ([4]; 80° C., 1 week): No change
CC(C)Oc1ccc(-c2nc(-c3cccc4c3CC[C@@H]4NCCO)no2)cc1C#N [Form CS6, ozanimod]	–	–	1.68	68.91	12.87	46.47	161.7	98.44	98.21	98.27	No change	98.47	98.33	97.97	No change	–	–	–	–	good stability	Form change under mechanical stress [5]: No form change

— patent US11680050B2, “Crystalline forms of ozanimod and ozanimod hydrochloride, and processes for preparation thereof” (RECEPTOS LLC, priority 2016, dated 2023)
